# From ChEMBL document CHEMBL5131500, “High Plasticity of the Amicetin Biosynthetic Pathway in Streptomyces sp. SHP 22-7 Led to the Discovery of Streptcytosine P and Cytosaminomycins F and G and Facilitated the Production of 12F-Plicacetin” (J Nat Prod, 2022)
# Columns and labels:
# Assay type in all cases: functional
# Bacillus subtilis = assay: Antibacterial activity against Bacillus subtilis 168 assessed as bacterial growth inhibition incubated over night by two-fold serial dilution method
# Klebsiella aerogenes = assay: Antibacterial activity against Enterobacter aerogenes ATCC 13048 assessed as bacterial growth inhibition incubated over night by two-fold serial dilution method
# Pseudomonas aeruginosa = assay: Antibacterial activity against Pseudomonas aeruginosa ATCC 27853 assessed as bacterial growth inhibition incubated over night by two-fold serial dilution method
# Candida albicans = assay: Antifungal activity against Candida albicans Tu01 assessed as fungal growth inhibition incubated for 48 hrs by broth microdilution method
# Escherichia coli [1] = assay: Antibacterial activity against Escherichia coli ATCC 25922 assessed as bacterial growth inhibition incubated over night by two-fold serial dilution method
# Nakaseomyces glabratus = assay: Antifungal activity against Candida glabrata Tu04 assessed as fungal growth inhibition incubated for 48 hrs by broth microdilution method
# Acinetobacter baumannii = assay: Antibacterial activity against Acinetobacter baumannii 09987 assessed as bacterial growth inhibition incubated over night by two-fold serial dilution method
# HeLa = assay: Cytotoxicity against human HeLa cells assessed as reduction in cell viability after 24 hrs by resazurin dye based assay
# Staphylococcus aureus [2] = assay: Antibacterial activity against Staphylococcus aureus ATCC 29213 assessed as bacterial growth inhibition incubated over night by two-fold serial dilution method
# Staphylococcus aureus [3] = assay: Antibacterial activity against Staphylococcus aureus NCTC 8325 assessed as bacterial growth inhibition incubated over night by two-fold serial dilution method
# Enterococcus faecium = assay: Antibacterial activity against Enterococcus faecium BM4147-1 assessed as bacterial growth inhibition incubated over night by two-fold serial dilution method
# Klebsiella pneumoniae = assay: Antibacterial activity against Klebsiella pneumoniae ATCC 12657 assessed as bacterial growth inhibition incubated over night by two-fold serial dilution method
# Escherichia coli [4] = assay: Antimicrobial activity against Escherichia coli MRE600 assessed as inhibition of translation using luciferin as substrate incubated for 2 hrs by chemiluminescence based cell free assay; settings: MRE600, 2 h
# [5] = test system: Mycolicibacterium smegmatis; assay: Antibacterial activity against Mycobacterium smegmatis mc2 155 assessed as bacterial growth inhibition incubated over night by two-fold serial dilution method
# [6] = test system: Mycobacterium tuberculosis; assay: Antitubercular activity against Mycobacterium tuberculosis H37Rv ATCC 25618 assessed as bacterial growth inhibition incubated for 7 days by resazurin microtiter assay; settings: H37Rv ATCC 25618, 168 h, time 7 day
Structure (SMILES),MIC (Bacillus subtilis),MIC (Klebsiella aerogenes),MIC (Pseudomonas aeruginosa),MIC (Candida albicans),MIC (Escherichia coli [1]),MIC (Nakaseomyces glabratus),MIC (Acinetobacter baumannii),IC50 (HeLa),MIC (Staphylococcus aureus [2]),MIC (Staphylococcus aureus [3]),MIC (Enterococcus faecium),MIC (Klebsiella pneumoniae),IC50 (Escherichia coli [4]),MIC [5],MIC95 [6]
C[C@H]1O[C@H](O[C@H]2CC[C@H](n3ccc(NC(=O)c4ccc(N)c(F)c4)nc3=O)O[C@@H]2C)[C@H](O)[C@@H](O)[C@@H]1N(C)C,> 32 µg/mL,> 32 µg/mL,> 32 µg/mL,> 32 µg/mL,> 32 µg/mL,> 32 µg/mL,> 32 µg/mL,> 64 µg/mL,> 32 µg/mL,> 32 µg/mL,> 32 µg/mL,> 32 µg/mL,–,–,–
CC[C@H](C)CCC(=O)Nc1ccn([C@H]2CC[C@H](O[C@H]3O[C@H](C)[C@@H](N(C)C)[C@H](O)[C@H]3O)[C@@H](C)O2)c(=O)n1,> 32 µg/mL,> 32 µg/mL,> 32 µg/mL,> 32 µg/mL,> 32 µg/mL,> 32 µg/mL,> 32 µg/mL,> 64 µg/mL,> 32 µg/mL,> 32 µg/mL,> 32 µg/mL,> 32 µg/mL,9.5 µg/mL,16 µg/mL,–
CC(C)CC(=O)Nc1ccn([C@H]2CC[C@H](O)[C@@H](C)O2)c(=O)n1,> 32 µg/mL,> 32 µg/mL,> 32 µg/mL,> 32 µg/mL,> 32 µg/mL,> 32 µg/mL,> 32 µg/mL,> 64 µg/mL,> 32 µg/mL,> 32 µg/mL,> 32 µg/mL,> 32 µg/mL,–,> 32 µg/mL,–
CS/C=C/C(=O)Nc1ccn([C@H]2CC[C@H](O[C@H]3O[C@H](C)[C@@H](N(C)C)[C@H](O)[C@H]3O)[C@@H](C)O2)c(=O)n1,8 µg/mL,> 32 µg/mL,> 32 µg/mL,> 32 µg/mL,> 32 µg/mL,> 32 µg/mL,> 32 µg/mL,1 µg/mL,16 µg/mL,16 µg/mL,> 32 µg/mL,> 32 µg/mL,1 µg/mL,4 µg/mL,8 µM
CC(C)=CC(=O)Nc1ccn([C@H]2CC[C@H](O[C@H]3O[C@H](C)[C@@H](N(C)C)[C@H](O)[C@H]3O)[C@@H](C)O2)c(=O)n1,32 µg/mL,> 32 µg/mL,> 32 µg/mL,> 32 µg/mL,> 32 µg/mL,> 32 µg/mL,> 32 µg/mL,2 µg/mL,> 32 µg/mL,> 32 µg/mL,> 32 µg/mL,> 32 µg/mL,1.6 µg/mL,4 µg/mL,32 µM
CC[C@H](C)C(=O)Nc1ccn([C@H]2CC[C@H](O)[C@@H](C)O2)c(=O)n1,> 32 µg/mL,> 32 µg/mL,> 32 µg/mL,> 32 µg/mL,> 32 µg/mL,> 32 µg/mL,> 32 µg/mL,> 64 µg/mL,> 32 µg/mL,> 32 µg/mL,> 32 µg/mL,> 32 µg/mL,–,> 32 µg/mL,–
CC(C)=CC(=O)Nc1ccn([C@H]2CC[C@H](O)[C@@H](C)O2)c(=O)n1,> 32 µg/mL,> 32 µg/mL,> 32 µg/mL,> 32 µg/mL,> 32 µg/mL,> 32 µg/mL,> 32 µg/mL,> 64 µg/mL,> 32 µg/mL,> 32 µg/mL,> 32 µg/mL,> 32 µg/mL,–,> 32 µg/mL,–
C[C@H]1O[C@H](O[C@H]2CC[C@H](n3ccc(NC(=O)c4ccc(N)cc4)nc3=O)O[C@@H]2C)[C@H](O)[C@@H](O)[C@@H]1N(C)C,32 µg/mL,> 32 µg/mL,> 32 µg/mL,> 32 µg/mL,> 32 µg/mL,> 32 µg/mL,> 32 µg/mL,16 µg/mL,> 32 µg/mL,> 32 µg/mL,> 32 µg/mL,> 32 µg/mL,12 µg/mL,2 µg/mL,16 µM
CC(=O)C(C)Nc1ccc(C(=O)Nc2ccn([C@H]3CC[C@H](O[C@H]4O[C@H](C)[C@@H](N(C)C)[C@H](O)[C@H]4O)[C@@H](C)O3)c(=O)n2)cc1 (stereo not given in full),> 32 µg/mL,> 32 µg/mL,> 32 µg/mL,> 32 µg/mL,> 32 µg/mL,> 32 µg/mL,> 32 µg/mL,16 µg/mL,> 32 µg/mL,> 32 µg/mL,> 32 µg/mL,> 32 µg/mL,13 µg/mL,2 µg/mL,32 µM
